The experiment has as its target T1, KRAS G12C 1-169, his-tagged protein, GDP-loaded (Homo sapiens, UniProt P01116, G12C).
T1 construct: KRAS G12C 1-169, his-tagged protein, GDP-loaded
Put plainly: Biochemical assay: covalent binding to KRAS G12C measured by mass spectrometry. The note with it: covalently bind to KRAS G12C, after a thirty minute incubation period. The protocol: Test compounds were prepared as 10 mM stock solutions in DMSO (Fisher cat #BP-231-100). KRAS G12C 1-169, his-tagged protein, GDP-loaded was diluted to 0.5 μM in buffer (20 mM Hepes, 150 mM NaCl, 1 mM MgCl2). Compounds were tested for activity as follows:
Compounds were diluted to 50× final test concentration in DMSO in 96-well storage plates. Compound stock solutions were vortexed before use and observed carefully for any sign of precipitation. Dilutions were as follow: • For 100 μM final compound concentration, compounds were diluted to 5000 μM (5 μL 10 mM compound stock+5 μL DMSO and mixed well by pipetting. • For 30 μM final compound concentration, compounds were diluted to 1500 μM (3 μL 10 mM compound stock+17 μL DMSO) and mixed well by pipetting. • For 10 μM final compound concentration, compounds were diluted to 500 μM (2 μL 10 mM compound stock+38 μL DMSO) and mixed well by pipetting. 49 μL of the stock protein solution was added to each well of a 96-well PCR plate (Fisher cat #1423027). 1 μl of the diluted 50× compounds were added to appropriate wells in the PCR plate using 12-channel pipettor. Reactions were mixed carefully and thoroughly by pipetting up/down with a 200 μL multi-channel pipettor. The plate was sealed well with aluminum plate seal, and stored in drawer at room temperature for 10 minutes, 30 minutes, 2 hours or 24 hours. 5 μL of 2% formic acid (Fisher cat #A117) in de-ionized H2O was then added to each well followed by mixing with a pipette. The plate was then resealed with aluminum seal and stored on dry ice until analyzed as described below.
The above described assays were analyzed by mass spectrometry according to one of the following two procedures:
The MS instrument is set to positive polarity, 2 GHz resolution, and low mass (1700) mode and allowed to equilibrate for 30 minutes. The instrument is then calibrated, switched to acquisition mode and the appropriate method loaded.
After another 30 minute equilibration time, a blank batch (i.e., buffer) is run to ensure equipment is operating properly. The samples are thawed at 37° C. for 10 minutes, briefly centrifuged, and transfer to the bench top. Wells A1 and H12 are spiked with 1 μL 500 μM internal standard peptide, and the plates centrifuged at 2000×g for 5 minutes. The method is then run and masses of each individual well recorded.
The masses (for which integration data is desired) for each well are pasted into the platemap and exported from the analysis. Masses for the internal standards are exported as well. The data at 50 ppm is extracted for the +19 charge state, and identity of well A1 is assigned using the internal standard spike and integrated. Peak data is exported as a TOF list and the above steps are repeated individually, for the +20, 21, 22, 23, 24, and 25 charge states.
The masses and peak intensities of KRAS G12C protein species were measured using a Dionex RSLCnano system (Thermo Scientific) connected to a Q Exactive Plus mass spectrometer (Thermo Scientific).
[…] of sample was each loaded onto a Aeris™ […] WIDEPORE C4 200 Å, LC Column 50×2.1 mm column maintained at 40° C. at a flow rate of 600 μL/min with […] (0.1% formic acid in acetonitrile). The liquid chromatography conditions were 20% solvent B for 1 minute, 20% to 60% solvent B for 1.5 minutes, 60% to 90% solvent for 0.5 minute, 90% solvent B for 0.2 minute, 90% to 20% solvent B for 0.2 minute, and then equilibrated for 1.6 minute before the following sample injection. The flow rate was maintained at 600 μL/min throughout the sample analysis.
The mass spectrometer was operated in profile mode at a resolution of 17500, 5 microscans, using 50 msec max injection time and an AGC target of 1×10^6, and a full mass range from 800-1850 m/z was recorded. The HCD trapping gas was optimized for maximum sensitivity for intact proteins. […]
For the compound `C=CC(=O)N1CCC(Nc2cnnc3c(-c4cc(O)cc5ccccc45)cccc23)C1` (centres unmarked) [Compound 22], the Binding % result is “+ (+ indicates binding activity up to 5%)”. To `C=CC(=O)N1CC(Nc2cncc3c(-c4c(C)ccc5[nH]ncc45)cccc23)C1` [Compound 26, 1-(3-((8-(5-methyl-1H-indazol-4-yl)isoquinolin-4-yl)amino)azetidin-1-yl)prop-2-en-1-one] belongs “++ (++ indicates binding activity of 5% or more)”. As for `C=CC(=O)N1CCC(Nc2cnnc3c(-c4c(C)ccc5[nH]ncc45)cccc23)C1` (centres unmarked) [Compound 23, 1-(3-((8-(5-methyl-1H-indazol-4-yl)cinnolin-4-yl)amino)pyrrolidin-1-yl)prop-2-en-1-one], the Binding % result was “+ (+ indicates binding activity up to 5%)”. Then `C=CC(=O)N1CC(Nc2cncc3c(-c4cc(O)cc5ccccc45)ccnc23)C1` [Compound 24, 1-(3-((4-(3-hydroxynaphthalen-1-yl)-1,6-naphthyridin-8-yl)amino)azetidin-1-yl)prop-2-en-1-one], with “++ (++ indicates binding activity of 5% or more)”; and `C=CC(=O)N1CCCC(Nc2cnnc3c(-c4c(C)ccc5[nH]ncc45)cccc23)C1` (centres unmarked) [Compound 21, 1-(3-((8-(5-methyl-1H-indazol-4-yl)cinnolin-4-yl)amino)piperidin-1-yl)prop-2-en-1-one], with “+ (+ indicates binding activity up to 5%)”; and `C=CC(=O)N1CC(Nc2cncc3c(-c4cc(O)cc5ccccc45)cccc23)C1` [Compound 25, 1-(3-((8-(3-hydroxynaphthalen-1-yl)isoquinolin-4-yl)amino)azetidin-1-yl)prop-2-en-1-one], with “++ (++ indicates binding activity of 5% or more)”. To `C=CC(=O)N1CCN(c2cnnc3c(-c4cc(O)cc5ccccc45)cccc23)CC1` [Compound 20, 1-(4-(8-(3-hydroxynaphthalen-1-yl)cinnolin-4-yl)piperazin-1-yl)prop-2-en-1-one] belongs “++ (++ indicates binding activity of 5% or more)”; to `C=CC(=O)N1CCN(c2cnnc3c(-c4c(C)ccc5[nH]ncc45)cccc23)CC1` [Compound 19, 1-(4-(8-(5-methyl-1H-indazol-4-yl)cinnolin-4-yl)piperazin-1-yl)prop-2-en-1-one], “+ (+ indicates binding activity up to 5%)”. To `C=CC(=O)N1CC(Nc2cnnc3c(-c4cc(O)cc5ccccc45)cccc23)C1` [Compound 18, 1-(3-((8-(3-hydroxynaphthalen-1-yl)cinnolin-4-yl)amino)azetidin-1-yl)prop-2-en-1-one] belongs “++ (++ indicates binding activity of 5% or more)”; to `C=CC(=O)N1CC(Nc2ncnc3c(-c4cc(O)cc5ccccc45)cccc23)C1` [Compound 2, 1-(3-((8-(3-hydroxynaphthalen-1-yl)quinazolin-4-yl)amino)azetidin-1-yl)prop-2-en-1-one], “++ (++ indicates binding activity of 5% or more)”; to `C=CC(=O)N1CC(Nc2ncnc3c(-c4c(C)ccc5[nH]ncc45)cccc23)C1` [Compound 1, 1-(3-((8-(5-methyl-1H-indazol-4-yl)quinazolin-4-yl)amino)azetidin-1-yl)prop-2-en-1-one], “+ (+ indicates binding activity up to 5%)”.

Source of the values: US11274093B2, “Fused bicyclic benzoheteroaromatic compounds and methods of use thereof” (Araxes Pharma LLC, priority 2017, dated 2022).
